By IC50 is commonly meant the point on the concentration scale where inhibition reaches its midpoint.

From patent US7179937B2, “Cyclopentenone derivatives for cancer therapy” (Dabur Research Foundation, priority 2001, dated 2007) come the findings set out here.

Experiment [1] deals with VEGF. The experiment can be described thus: VEGF levels in endothelial cells (ECV304), ELISA. In kind it is cell-based, human. To be noted: 5 ug/ml, 4 hours. The method, then:
Human endothelial cells (ECV304) were plated at the density of 8–10×10^5 cells per 2 ml in a six well plate. After an overnight incubation of cells at 37° C., cyclopentenone derivatives at a concentration of 5 ug/ml was added to the wells. The untreated wells served as controls. The plates were incubated for 4 hours at 37° C. The medium was collected from all the wells (control and treated) and spun down at 2000 r.p.m to remove the cellular material. The supernatant was collected and used for ELISA (quantikine human VEGF, R&D Systems). The assay employs the quantitative sandwich enzyme immuonoassay technique. A monoclonal antibody specific for VEGF has been pre-coated onto a microplate. Standards and samples were pipetted into the wells and VEGF present was bound by the immobilized antibody. After washing away the unbound substances, an enzyme-linked polyclonal antibody specific for VEGF was added to the wells. Following a wash to remove any unbound antibody-enzyme reagent, a substrate solution was added to the wells and color developed in proportion to the amount of VEGF bound in the initial step. The optical density of each well was determined within 30 minutes using a microplate reader set to 450 nm and reference wavelength at 540 nm. The VEGF levels were inhibited by the addition of cyclopentenone derivatives in vitro.
On the technique in general: An ELISA detects its analyte on a solid surface through an enzyme-linked reagent.

In experiment [2] the test system is Caspase-3. Nature of the experiment: Caspase-3 induction in oral cancer cells (KB), colorimetric DEVD-pNA. In kind it is cell-based, human. Particulars: 5 ug/ml. The method, then:
Human squamous cell carcinoma (KB) were plated in a 25 cm^2 flask. When cultures achieved confluence, the cyclopentenone derivative of structure 20 was added to cells. The final concentration of derivative of the structure 20 in the flask was 5 ug/ml. The untreated wells served as controls. The cells were incubated with the drug for 2 different time points of 6 and 16 hours at 37° C. The cells were collected by centrifugation at 2000 r.p.m. for 10 minutes. The supernatant was gently removed and discarded while Lysis Buffer was added to the cell pellet (25 ul of lysis buffer per 1×10^4 cell). The cell lysate was incubated on ice for 10 minutes and centrifuged at 10,000-×g for 1 minute. The supernatant was transferred to a new tube and kept on ice. 50 ul of the cell lysate was added in a 96 well plate. To this was added 2× Reaction Buffer. Prior to using reaction buffer 10 ul of fresh DTT stock per 1 ml of 2× Reaction Buffer was added. To each well 5 ul of Caspase-3 colorimetric substrate (DEVD-pNA) was added. The plate was incubated for 1–2 hours at 37° C. and read at 405 nm.
The level of caspase enzymatic activity in the cell lysate is directly proportional to the absorbance at 405 nm.

Experiment [3] deals with Tubulin. Nature of the experiment: in vitro tubulin polymerization (assembly) assay, absorbance at 340 nm. In kind it is biochemical. To be noted: tubulin 1 mg/ml, 37° C., pH 6.9; read-out: IC50 values for inhibition of Tubulin Polymerization. As for the experimental part:
The cyclopentenone derivatives were checked for their effects on tubulin polymerization in in vitro. Briefly, the tubulin assembly reaction was performed at 37° C. in buffer containing 80 mM PIPES, 1 mM EGTA, 1.0 mM GTP and 1 mM MgCl2 (pH 6.9) at a tubulin concentration of 1 mg/ml in the presence or absence of the cyclopentenone derivatives. The final concentration of the cyclopentenone derivatives in the reaction mixture varied from 1–5 uM. The derivatives were dissolved in 0.1% DMSO. The control experiments were carried out with 0.1% DMSO. The tubulin polymerization was followed by measurement of the absorbance of the solution at 340 nm every 30 seconds. […] Thus the cyclopentenone derivatives mediated their observed anticancer activities by tubulin depolymerization.

The subject of experiment [4] is PTC tumor xenografts. The experiment can be described thus: In vivo anti-tumor activity on PTC (colon) xenografted mice. Set-up: species or system Balb/c athymic mice. Particulars: PTC xenograft, intravenously 0.5 mg/100 μL once a day for 14 days. As for the experimental part:
PTC tumor xenografts were grown in Balb/c athymic mice by subcutaneous inoculation of a single cell suspension of PTC cells (15×10^6 cells/100 μL). The tumor bearing animals were divided into 2 groups of three animals each including one group comprising untreated control animals. Treatment with compound of formula no. 49 was initiated when the average tumor volumes, as measured using a vernier caliper, were […]. Compound of formula no. 49 was administered intravenously to the assigned group of tumor bearing animals at a dose of 0.5 mg/100 μL once a day and the treatment was continued for a period of 14 days.
The antitumor activity of the compound was monitored by measuring tumor volumes every fourth day using the formula W*W*L*0.4 (W=smaller diameter, L=larger diameter). The percentage inhibition of tumor growth was calculated using the formula (1-tumor volume-treated/tumor volume-control)*100. […] Compound of formula no. […] The percentage inhibition of tumor growth caused compound of formula no. 49 as compared to controls on day 23 was 45.8%.

Consider `COc1ccc(C2=C(c3cc(OC)c(OC)c(OC)c3)C(=NO)CC2OC(C)=O)cc1` (stereo not shown) [Compound 20], for which, in experiment [1], the “Percent Reduction in VEGF” value is 2.0 ± 0.1%. The “Percent Induction of Caspase-3, 6 hours” value in experiment [2] (6 hours) was found to be 13.6 ± 2.4%. For the same molecule, the “Percent Induction of Caspase-3, 16 hours” value in experiment [2] (16 hours) is 20.7 ± 3.1%.

As for `COc1ccc(C2=C(c3cc(OC)c(OC)c(OC)c3)C(=O)CC2O)cc1O` (stereo not shown) [Compound 39], the concentration for half-maximal inhibition (IC50) in experiment [3] amounted to 1400 ± 600 nM.

In the case of `COc1ccc(C2=C(c3cc(OC)c(OC)c(OC)c3)C(=O)C(O)C2)cc1` (stereo not shown) [Compound 48], the IC50 in experiment [3] was 2100 ± 100 nM.

Regarding `COc1ccc(C2=C(c3cc(OC)c(OC)c(OC)c3)C(=NO)C(O)C2)cc1` (stereo not shown) [Compound 49], the “Percent Reduction in VEGF” value in experiment [1] came to 28.6 ± 1.9%. The “antitumor activity on PTC xenografts (in words)” value in experiment [4] is “significant antitumor activity”. In experiment [3], the IC50 worked out at 2300 ± 500 nM.

As for `COc1ccc(C2=C(c3cc(OC)c(OC)c(OC)c3)/C(=N\O)C(O)C2)cc1F` (stereo not shown) [Compound 66], the 50% inhibitory concentration (IC50) in experiment [3] was 2000 ± 600 nM.

For `COc1ccc(C2=C(c3cc(OC)c(OC)c(OC)c3)C(=O)C(O)C2)cc1O` (stereo not shown) [Compound 74], the half-maximal inhibitory concentration (IC50) in experiment [3] is 1800 ± 500 nM.
